Legend:
[1] = system: subjects undergoing cataract extraction with lens replacement (CELR); test: Phase 2: treatment-emergent ocular adverse events and serious adverse events; conditions: for Cataract operation complication, % / Conjunctivitis bacterial, % / Corneal abrasion, % / Corneal oedema, % / Endophthalmitis, % / Eye disorders, % / Eye pain, % / Foreign body sensation in eyes, % / General disorders and administration site conditions, % / Infections and infestations, % / Injury, poisoning and procedural complications, % / Intraocular pressure increased, % / Investigations, % / Ocular hypertension, % / Pain, % / Paracentesis eye, % / Procedural pain, % / Subjects with Any Treatment-Emergent Ocular AEs, % / Vision blurred, %: Full Analysis Set; for Subjects who experienced a treatment-emergent ocular adverse event, study eye: overall, MELT-300, midazolam alone, ketamine alone
Description: The study eye (TABLE 32) non-study eye (TABLE 33), or either eye (TABLE 34) was assessed. TEAES were defined as events that started on or after the date of the study drug administration through the end of Visit 4 or early withdrawal. Subjects with one or more adverse event within a level of Medical Dictionary for Regulatory Activities (MedDRA) were counted only once in that level. […] TEAEs of special interest by system, organ class, and preferred term are provided in TABLE 35 for the full analysis set.

healthy adult subjects = test: Phase 1 safety: adverse events, vital signs, laboratory values, ECG, oral cavity examination, neurocognitive assessment (SPMSQ); assay type: in vivo, human; conditions: for Mean changes from baseline in systolic and diastolic blood pressures: MELT-100 3/25 mg and 6/25 mg, each timepoint
Description: The Investigator evaluated safety using physical and oral examinations, O2 saturation (SpO2), vital sign measurements, clinical laboratory evaluations, electrocardiograms (ECGs), reported or observed adverse events (AEs), and assessments of neurocognitive function. Subjects were monitored for any AEs from the first dose through the end of the study.
All safety analyses were performed on data from the Safety Population. All quantitative safety data were tabulated with descriptive summary statistics, including the following: arithmetic mean, SD, median, minimum value, maximum values, and number of non-missing observations (n).
Frequency counts and percentage were provided for categorical data. Data were summarized by treatment sequence, treatment, and/or overall, as applicable. All observed baseline/predose and postdose values were summarized by treatment when data were available. Additionally, the corresponding change from baseline/predose assessment to each postdose assessment were also summarized by treatment. All tabulations involving change from baseline/predose comparisons included only those subjects with data at both the baseline/predose and postdose assessments.
Adverse events were coded using the Medical Dictionary for Regulatory Activities (MedDRA, version 22.0, or later) terms and summarized by system organ class (SOC) and preferred term (PT) within SOC. The number and percentage of subjects reporting TEAEs were summarized by reported SOC and PT for each treatment and the population overall. TEAEs were also summarized by maximum severity and nearest relationship to study drug, by SOC and PT for each treatment.
A by-subject AE (including treatment-emergent) data listing, including but not limited to verbatim term, SOC, PT, severity, and relationship to study treatment, was provided. Deaths, SAEs, and other significant AEs, including those leading to early termination of study treatments were listed.
Vital signs, clinical laboratory values (hematology, serum chemistry, and urinalysis), and 12-lead ECG parameters were summarized by treatment including any abnormal values flagged.
Physical examination and oral cavity examination data at each evaluation were listed. […] Weight and height were summarized. Neurocognitive assessments for each evaluation were listed.

[2] = system: subjects undergoing cataract extraction with lens replacement (CELR); test: Phase 2: subject-rated worst pain during surgery by the numeric pain rating scale; assay type: in vivo, human; conditions: Full Analysis Set; for Worst Pain During Surgery (NPRS), Mean / Worst Pain During Surgery (NPRS), Median: carry forward, MELT-300, midazolam 3 mg, ketamine 50 mg
[3] = system: subjects undergoing cataract extraction with lens replacement (CELR); test: Phase 2 MELT-300: subjects achieving procedural sedation (RSS level 2 or 3 without rescue); assay type: in vivo, human; conditions: for Subjects who achieved target sedation: Full analysis set, MELT-300, 3 mg midazolam alone, 50 mg ketamine alone, sublingual; for Subjects achieving procedural sedation: No / Subjects achieving procedural sedation: Yes: Visit 2 (Day 1), Full Analysis Set, single sublingual tablet (MELT-300; midazolam 3 mg; ketamine 50 mg)
Description: Achievement of procedural sedation was evaluated for each subject (see TABLE 20). Success for procedural sedation for this Phase 2 study was defined as achieving target sedation level (Ramsay Sedation Scale (RSS) scale level 2 or 3) at the start of surgery without the need for rescue sedation medication, and no need for intraoperative rescue sedation medication to maintain target sedation level.

[4] = system: subjects undergoing cataract extraction with lens replacement (CELR); test: Phase 2: subjects completing the surgery (and without interruption); assay type: in vivo, human; conditions: Visit 2 (Day 1); Full Analysis Set
Description: The number of subjects achieving analgesia response (observed) in the full analysis set was determined. Success in analgesia response was defined as NPRS<4 at the available at the available four intraoperative timepoints and a failure otherwise (e.g., any interoperative pain rescue was assumed to be a failure. Results are provided in TABLE 25. The number of subjects completing the surgery is provided in TABLE 26, and the number of subjects completing the surgery without interruption is provided in TABLE 27. For this measure, subjects completing the surgery without interruption (other than rescue medication) due to pain or anxiety were considered successes. The number of subjects requiring rescue sedative medication and those requiring analgesic medication are provided in TABLES 28 and 29, respectively. For all TABLES 25-29, p-Values between pairs of treatments were calculated and are provided.

[5] = Non-Study Eye (as printed in Table 33)
[6] = midazolam 3.5 mg IV, ketamine 18 mg IV

Cc1ncc2n1-c1ccc(Cl)cc1C(c1ccccc1F)=NC2 [Midazolam, 8-chloro-6-(2-fluorophenyl)-1-methyl-4H-imidazo[1,5-a][1,4]benzodiazepine]
Cataract operation complication, % ([1]; Either Eye): (0) % | Conjunctivitis bacterial, % ([1]; Either Eye): (0) % | Corneal abrasion, % ([1]; Either Eye): (0) % | Corneal oedema, % ([1]; Either Eye): (0) % | Endophthalmitis, % ([1]; Either Eye): (0) % | Eye disorders, % ([1]; Either Eye): (5.7) % | Eye pain, % ([1]; Either Eye): (3.4) % | Foreign body sensation in eyes, % ([1]; Either Eye): (0) % | General disorders and administration site conditions, % ([1]; Either Eye): (0) % | Infections and infestations, % ([1]; Either Eye): (0) % | Injury, poisoning and procedural complications, % ([1]; Either Eye): (1.1) % | Intraocular pressure increased, % ([1]; Either Eye): (2.3) % | Investigations, % ([1]; Either Eye): (2.3) % | Ocular hypertension, % ([1]; Either Eye): (1.1) % | Pain, % ([1]; Either Eye): (0) % | Paracentesis eye, % ([1]; Either Eye): (0) % | Procedural pain, % ([1]; Either Eye): (1.1) % | Subjects with Any Treatment-Emergent Ocular AEs, % ([1]; Either Eye): (9.2) % | Vision blurred, % ([1]; Either Eye): (1.1) % | Paracentesis eye, % [1, 5]: (0) % | Conjunctivitis bacterial, % ([1]; Non-Study Eye): (0) % | Eye disorders, % ([1]; Non-Study Eye): (1.1) % | Eye pain, % ([1]; Non-Study Eye): (0) % | Infections and infestations, % ([1]; Non-Study Eye): (0) % | Subjects with Any Treatment-Emergent Ocular AEs, % ([1]; Non-Study Eye): (1.1) % | Vision blurred, % ([1]; Non-Study Eye): (1.1) % | Cataract operation complication, % ([1]; Study Eye): (0) % | Corneal abrasion, % ([1]; Study Eye): (0) % | Corneal oedema, % ([1]; Study Eye): (0) % | Endophthalmitis, % ([1]; Study Eye): (0) % | Eye disorders, % ([1]; Study Eye): (4.6) % | Eye pain, % ([1]; Study Eye): (3.4) % | Foreign body sensation in eyes, % ([1]; Study Eye): (0) % | General disorders and administration site conditions, % ([1]; Study Eye): (0) % | Infections and infestations, % ([1]; Study Eye): (0) % | Injury, poisoning and procedural complications, % ([1]; Study Eye): (1.1) % | Intraocular pressure increased, % ([1]; Study Eye): (2.3) % | Investigations, % ([1]; Study Eye): (2.3) % | Ocular hypertension, % ([1]; Study Eye): (1.1) % | Pain, % ([1]; Study Eye): (0) % | Procedural pain, % ([1]; Study Eye): (1.1) % | Subjects with Any Treatment-Emergent Ocular AEs, % ([1]; Study Eye): (8.0) % | Subjects who experienced a treatment-emergent ocular adverse event, study eye [1]: 8.0% | PR duration (one subject) (healthy adult subjects; 24 hours after midazolam 3.5 mg IV in Period 4, not considered clinically significant): abnormal | Mean changes from baseline in systolic and diastolic blood pressures (healthy adult subjects; [6]): minimal and similar | Subjects with treatment-related AEs (healthy adult subjects; midazolam 3.5 mg IV): 8.3% | Treatment-related AEs, number of events (healthy adult subjects; midazolam 3.5 mg IV): 2 events | Mean change from baseline in pulse oximetry (healthy adult subjects; midazolam 3.5 mg IV at 10-minute postdose, MELT-100 6/50 mg at 30-minute postdose): small mean decrease from baseline | Worst pain: Mean Difference versus Placebo [2]: 0.05 | Worst Pain During Surgery (NPRS), Mean [2]: 4.0 | Worst Pain During Surgery (NPRS), Median [2]: 4.0 | Worst pain: Mean Difference versus Ketamine ([2]; versus ketamine 50 mg): 0.38 | Subjects who achieved target sedation [3]: 64.2% | Subjects achieving procedural sedation: No [3]: 29 (35.8) n (%) | Subjects achieving procedural sedation: Yes [3]: 52 (64.2) n (%) | Subjects completing the surgery: No [4]: 0 (0) n (%) | Subjects completing the surgery: Yes [4]: 81 (100.0) n (%)

CNC1(c2ccccc2Cl)CCCCC1=O (centres unmarked) [Ketamine, 2-(2-chlorophenyl)-2-(methylamino)cyclohexanone]
Cataract operation complication, % ([1]; Either Eye): (0) % | Conjunctivitis bacterial, % ([1]; Either Eye): (1.2) % | Corneal abrasion, % ([1]; Either Eye): (0) % | Corneal oedema, % ([1]; Either Eye): (1.2) % | Endophthalmitis, % ([1]; Either Eye): (1.2) % | Eye disorders, % ([1]; Either Eye): (5.9) % | Eye pain, % ([1]; Either Eye): (3.5) % | Foreign body sensation in eyes, % ([1]; Either Eye): (0) % | General disorders and administration site conditions, % ([1]; Either Eye): (0) % | Infections and infestations, % ([1]; Either Eye): (2.4) % | Injury, poisoning and procedural complications, % ([1]; Either Eye): (0) % | Intraocular pressure increased, % ([1]; Either Eye): (1.2) % | Investigations, % ([1]; Either Eye): (1.2) % | Ocular hypertension, % ([1]; Either Eye): (1.2) % | Pain, % ([1]; Either Eye): (0) % | Paracentesis eye, % ([1]; Either Eye): (0) % | Procedural pain, % ([1]; Either Eye): (0) % | Subjects with Any Treatment-Emergent Ocular AEs, % ([1]; Either Eye): (8.2) % | Vision blurred, % ([1]; Either Eye): (0) % | Paracentesis eye, % [1, 5]: (0) % | Conjunctivitis bacterial, % ([1]; Non-Study Eye): (1.2) % | Eye disorders, % ([1]; Non-Study Eye): (0) % | Eye pain, % ([1]; Non-Study Eye): (0) % | Infections and infestations, % ([1]; Non-Study Eye): (1.2) % | Subjects with Any Treatment-Emergent Ocular AEs, % ([1]; Non-Study Eye): (1.2) % | Vision blurred, % ([1]; Non-Study Eye): (0) % | Cataract operation complication, % ([1]; Study Eye): (0) % | Corneal abrasion, % ([1]; Study Eye): (0) % | Corneal oedema, % ([1]; Study Eye): (1.2) % | Endophthalmitis, % ([1]; Study Eye): (1.2) % | Eye disorders, % ([1]; Study Eye): (5.9) % | Eye pain, % ([1]; Study Eye): (3.5) % | Foreign body sensation in eyes, % ([1]; Study Eye): (0) % | General disorders and administration site conditions, % ([1]; Study Eye): (0) % | Infections and infestations, % ([1]; Study Eye): (1.2) % | Injury, poisoning and procedural complications, % ([1]; Study Eye): (0) % | Intraocular pressure increased, % ([1]; Study Eye): (1.2) % | Investigations, % ([1]; Study Eye): (1.2) % | Ocular hypertension, % ([1]; Study Eye): (1.2) % | Pain, % ([1]; Study Eye): (0) % | Procedural pain, % ([1]; Study Eye): (0) % | Subjects with Any Treatment-Emergent Ocular AEs, % ([1]; Study Eye): (7.1) % | Subjects who experienced a treatment-emergent ocular adverse event, study eye [1]: 7.1% | Mean changes from baseline in systolic and diastolic blood pressures (healthy adult subjects; [6]): highest at the 10-minute timepoint | Treatment-related AEs of hypertension, number (healthy adult subjects; ketamine 18 mg IV): 3 | Worst pain: Mean Difference versus Placebo [2]: −0.33 | Worst Pain During Surgery (NPRS), Mean [2]: 3.7 | Worst Pain During Surgery (NPRS), Median [2]: 4.0 | Subjects who achieved target sedation [3]: 63.3% | Subjects achieving procedural sedation: No [3]: 29 (36.7) n (%) | Subjects achieving procedural sedation: Yes [3]: 50 (63.3) n (%) | Subjects completing the surgery: No [4]: 0 (0) n (%) | Subjects completing the surgery: Yes [4]: 79 (100.0) n (%)

Source: patent US20250381198A1 (Melt Pharmaceuticals, Inc., priority 2024, published 2025)
